From patent US20240358726A1, “SPECIFIC T[…] MARIJUANA DOSES FOR STRESS AND PAIN” (Yale University, priority 2021, published 2024)

Experiments:
Type in all cases: in vivo, human
[1] = test system: recreational marijuana users; test: Wanting More Drug rating (drug craving) after acute dose; settings: adjusted for baseline
Excerpt: (§1) FIGS. 2A-2D: Blood Pressure, Pulse and Wanting More Drug Rating, adjusted for Baseline.
(§2) Sessions were completed one-week apart to allow for an adequate washout period between sessions.

[2] = Plasma levels of CBD and THC after acute dose (Example 1 cross-over study); settings: over the course of 4.45 hours (285 minutes), recreational marijuana users
Method: FIGS. 1A-1B: Plasma levels of CBD and THC—adjusted for baseline, for each of the dose conditions over the course of […] (285 minutes).
as §2

[3] = Blood pressure and pulse after acute dose (Example 1 safety study); settings: recreational marijuana users
Excerpt: as §1, §2
(§3) The first study was directed towards assessing safety of the THC and CBD doses in healthy, recreational cannabis users. […] The novel pain provocation experimental method allowed for detection of this effect within this first safety protocol assessment.

[4] = test system: recreational marijuana users; test: Provoked pain and anxiety ratings during adapted CPT protocol; settings: versus 40 CBD+20 THC, 100 CBD alone and 40 CBD alone; CBD alone versus CBD with low doses of THC (4:1 and 3:1)
Excerpt: FIGS. 3A-3B: Provoked average pain and anxiety (adjusted for baseline) ratings during adapted CPT protocol.
as §2, §3

SMILES: C=C(C)[C@@H]1CCC(C)=C[C@H]1c1c(O)cc(CCCCC)cc1O [CBD40, cannabidiol]
- average drug craving (want more drug), relative to placebo [1]: significantly reduced
- plasma THC levels adjusted for baseline, relative to placebo [2]: not

SMILES: C=C(C)[C@@H]1CCC(C)=C[C@H]1c1c(O)cc(CCCCC)cc1O [CBD100, cannabidiol]
- diastolic BP adjusted for baseline, relative to placebo [3]: significantly increased
- average drug craving (want more drug), relative to placebo [1]: significantly reduced
- plasma CBD levels adjusted for baseline, relative to placebo [2]: significantly increased
- plasma THC levels adjusted for baseline, relative to placebo [2]: not

SMILES: C=C(C)[C@@H]1CCC(C)=C[C@H]1c1c(O)cc(CCCCC)cc1O [CBD, cannabidiol]
- reducing pain and stress responses, comparison between dose conditions [4]: not as effective
